Measurements: US20080004348A1, “Naphthalene compounds” (LES LABORATOIRES SERVIER, priority 2006, published 2008)

What was measured:
human 5-HT2C receptor = molecular target: T1, human 5-HT2C receptor (Homo sapiens, UniProt P28335); experiment: Serotoninergic 5-HT2C receptor binding study, [3H]-mesulergine; details: membranes from CHO cells expressing human 5-HT2C
T1 construct: expressed in transfected cells
T1 sequence (P28335 33-458): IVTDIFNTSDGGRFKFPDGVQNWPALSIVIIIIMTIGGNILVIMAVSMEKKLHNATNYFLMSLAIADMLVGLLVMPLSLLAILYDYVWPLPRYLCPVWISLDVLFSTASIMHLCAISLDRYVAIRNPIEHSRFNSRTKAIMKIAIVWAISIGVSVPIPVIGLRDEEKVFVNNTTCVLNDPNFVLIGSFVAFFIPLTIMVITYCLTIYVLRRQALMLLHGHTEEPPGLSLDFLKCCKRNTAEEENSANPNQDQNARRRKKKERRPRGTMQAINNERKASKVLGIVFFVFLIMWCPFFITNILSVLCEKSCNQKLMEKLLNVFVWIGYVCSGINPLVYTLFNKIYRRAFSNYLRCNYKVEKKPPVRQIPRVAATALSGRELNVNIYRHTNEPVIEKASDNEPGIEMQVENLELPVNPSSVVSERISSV
Method: The affinity of the compounds for the human 5-HT2C receptor is evaluated on membrane preparations from CHO cells stably expressing that receptor.
Incubation is carried out in 50mM TRIS buffer, pH 7.4 containing 10 mM MgCl2 and 0.1% BSA, in the presence of [^3H]-mesulergine (InM) and 25 fmol/ml of receptor. Non-specific binding is determined in the presence of 10 μM mianserin.
The reaction is stopped by the addition of 50 mM TRIS buffer, pH 7.4 followed by a filtration step and 3 successive rinses: the radioactivity bound to the membranes remaining on the filters (GF/B pretreated with 0.1% PEI) is determined by liquid scintillation counting.

MT2 receptor = molecular target: T2, MT2 receptor (Homo sapiens, UniProt P49286); experiment: Melatonin MT2 receptor binding study, 2-[125I]-iodomelatonin; details: 2-[125I]-iodomelatonin radioligand
T2 sequence (P49286 1-362): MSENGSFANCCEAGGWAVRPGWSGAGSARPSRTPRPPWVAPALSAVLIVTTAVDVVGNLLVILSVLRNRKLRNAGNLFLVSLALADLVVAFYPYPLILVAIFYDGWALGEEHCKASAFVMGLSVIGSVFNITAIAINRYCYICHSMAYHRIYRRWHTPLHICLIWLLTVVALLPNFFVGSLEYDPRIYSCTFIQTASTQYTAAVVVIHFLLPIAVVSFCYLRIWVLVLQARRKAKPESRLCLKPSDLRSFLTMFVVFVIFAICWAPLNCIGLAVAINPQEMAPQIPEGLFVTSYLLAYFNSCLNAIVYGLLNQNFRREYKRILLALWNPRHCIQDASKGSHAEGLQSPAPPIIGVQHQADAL
Method: (§1) The MT1 or MT2 receptor binding experiments are carried out using 2-[^125I]-iodomelatonin as reference radioligand. The radioactivity retained is determined using a liquid scintillation counter.
(§2) Competitive binding experiments are then carried out in triplicate using the various test compounds. A range of different concentrations is tested for each compound. The results enable the binding affinities of the compounds tested (Ki) to be determined.

MT1 receptor = MT1 receptor (Homo sapiens, UniProt P48039); experiment: Melatonin MT1 receptor binding study, 2-[125I]-iodomelatonin; details: 2-[125I]-iodomelatonin radioligand
MT1 receptor, sequence (P48039 whole entry): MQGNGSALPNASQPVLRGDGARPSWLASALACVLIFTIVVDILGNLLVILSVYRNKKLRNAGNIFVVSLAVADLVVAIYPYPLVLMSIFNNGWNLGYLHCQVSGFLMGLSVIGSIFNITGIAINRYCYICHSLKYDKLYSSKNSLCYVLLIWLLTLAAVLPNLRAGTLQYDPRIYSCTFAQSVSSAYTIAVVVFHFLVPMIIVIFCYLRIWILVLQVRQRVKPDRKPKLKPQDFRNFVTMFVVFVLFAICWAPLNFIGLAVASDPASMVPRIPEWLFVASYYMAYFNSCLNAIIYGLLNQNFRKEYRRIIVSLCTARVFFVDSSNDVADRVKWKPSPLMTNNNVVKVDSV
Method: as §1, §2

In the case of COCC(CNC(C)=O)c1cccc2ccc(OC)cc12 (stereo not drawn) [Example 6, N-[3-Methoxy-2-(7-methoxy-1-naphthyl)propyl]acetamide], the Ki (human 5-HT2C receptor) is reported as 26000 nM, the Ki (MT2 receptor) is reported as 8.9 nM and the Ki (MT1 receptor) is reported as 4.9 nM.
